Data as given in patent publication US20140357713A1, “ANTIMICROBIAL COMPOUNDS AND METHODS OF USE” (NexMed Holdings, Inc., priority 2012, published 2014).
Like-named read-outs stand apart in the source and are kept apart here.

Legend:
[1] = tested on: Candida albicans (ATCC 90029); assay: Minimum inhibitory concentration (MIC) assay, Example 33; assay type: cell-based; details: Candida albicans
Procedure, shortened: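 Broth microdilution per CLSI guidelines in RPMI 1640; inoculum set to OD530 0.08–0.13, diluted 1:50 then 1:20 to 2× strength and mixed 1:2 with 2-fold serial compound dilutions. Incubated at 35° C; MIC read per CLSI.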

[2] = tested on: Escherichia coli (ATCC 25922); assay: as above; assay type: cell-based; details: Escherichia coli
Procedure, shortened: (§1)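 Broth microdilution per CLSI guidelines in CAMHB, with 2-fold serial compound dilutions. Inoculum was set to a 0.5 McFarland standard, diluted 1:100 to twice the test density, then mixed 1:2 with drug. Plates were incubated at 35° C and the MIC read per CLSI.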

[3] = tested on: Pseudomonas aeruginosa (ATCC 27853); assay: as above; assay type: cell-based; details: Pseudomonas aeruginosa
Procedure, shortened: as §1

[4] = tested on: Aspergillus niger (CMCC 98003); assay: as above; assay type: cell-based; details: Aspergillus niger
Procedure, shortened: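 Broth microdilution MIC per CLSI guidelines in RPMI 1640 with serial 2-fold compound dilutions. Spore suspension from sporulating colonies adjusted to OD530 0.09-0.13, diluted 1:50 as 2× inoculum and added 1:2 to drug wells; plates incubated at 35 °C and MIC read per CLSI.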

[5] = tested on: Staphulococcus aureus (ATCC 29213); assay: as above; assay type: cell-based, Staphylococcus aureus; details: Staphylococcus aureus
Procedure, shortened: as §1

[6] = tested on: Staphylococcus aureus (ATCC 29213); assay: Time kill study, Example 33 (0 to 5 min); assay type: cell-based; details: 1×MIC
Procedure, shortened: (§2)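 Performed per CLSI guidelines. Strain suspensions prepared as for MIC testing were mixed with compound solution in equal volume; samples taken at 0 min, 30 sec, 1 min and 5 mins were diluted in test medium, streaked on agar, and colonies counted after 24 to 48 hrs to give viable counts in Log10 CFU/mL.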

[7] = tested on: Escherichia coli (ATCC 25922); assay: Time kill study, Example 33 (0 to 5 min); assay type: cell-based; details: 1×MIC
Procedure, shortened: as §2

[8] = tested on: Pseudomonas aeruginosa (ATCC 27853); assay: Time kill study, Example 33 (0 to 5 min); assay type: cell-based; details: 1×MIC
Procedure, shortened: as §2

pH (Table 1) = assay type: physicochemical
[9] = Solubility (Sol., Table 1); assay type: physicochemical

MIC ([1]; ATCC90029, Table 19 summary, read-out: MIC): > 12500 µg/mL | MIC ([1]; ATCC90029, n = 1, read-out: MIC Candida albicans): > 12500 µg/mL | MIC ([1]; ATCC90029, n = 2, read-out: MIC Candida albicans): > 12500 µg/mL | MIC ([2]; ATCC25922, Table 19 summary of Example 33 and Example 35, read-out: MIC): 3130 µg/mL | MIC ([2]; ATCC25922, n = 1, read-out: MIC E. coli): 3130 µg/mL | MIC ([2]; ATCC25922, n = 2, read-out: MIC E. coli): 3130 µg/mL | MIC ([3]; ATCC27853, Table 19 summary, read-out: MIC): 6250 µg/mL | MIC ([3]; ATCC27853, n = 1, read-out: MIC P. aeruginosa): 6250 µg/mL | MIC ([3]; ATCC27853, n = 2, read-out: MIC P. aeruginosa): 6250 µg/mL | MIC ([4]; CMCC98003, Table 19 summary, read-out: MIC): > 12500 µg/mL | MIC ([4]; CMCC98003, n = 1, read-out: MIC Aspergillus niger): > 12500 µg/mL | MIC ([4]; CMCC98003, n = 2, read-out: MIC Aspergillus niger): > 12500 µg/mL | MIC ([5]; ATCC29213, Table 19 summary, read-out: MIC): 3130 µg/mL | MIC ([5]; ATCC29213, n = 1, read-out: MIC S. aureus): 3130 µg/mL | MIC ([5]; ATCC29213, n = 2, read-out: MIC S. aureus): 3130 µg/mL | pH (pH (Table 1)): 1.66 | Sol. [9]: 51% | melting point: 100 to 106 °C
Structure (SMILES): CCCCCCCCCCCC(C)(C)OC(=O)C(C)N(C)C.Cl (stereo not drawn) [Nex-65, 2-Methyltridecan-2-yl 2-(dimethylamino)propanoate hydrochloride]
Viable counts, Staphylococcus aureus time kill study ([6]; 0.5 min): 6.39 Log10 CFU/mL | Viable counts, Staphylococcus aureus time kill study ([6]; 1 min): 6.35 Log10 CFU/mL | Viable counts, Staphylococcus aureus time kill study ([6]; 5 min): 6.17 Log10 CFU/mL | Viable counts, Staphylococcus aureus time kill study ([6]; time 0): 6.34 Log10 CFU/mL | Viable counts, Escherichia coli time kill study ([7]; 0.5 min): 5.72 Log10 CFU/mL | Viable counts, Escherichia coli time kill study ([7]; 1 min): 5.97 Log10 CFU/mL | Viable counts, Escherichia coli time kill study ([7]; 5 min): 4.22 Log10 CFU/mL | Viable counts, Escherichia coli time kill study ([7]; time 0): 5.68 Log10 CFU/mL | Viable counts, Pseudomonas aeruginosa time kill study ([8]; 0.5 min): 5.36 Log10 CFU/mL | Viable counts, Pseudomonas aeruginosa time kill study ([8]; 1 min): 5.52 Log10 CFU/mL | Viable counts, Pseudomonas aeruginosa time kill study ([8]; 5 min): <3.52 Log10 CFU/mL | Viable counts, Pseudomonas aeruginosa time kill study ([8]; time 0): 5.52 Log10 CFU/mL
